Molecular target: T1, human Fatty Acid Synthase (Homo sapiens, UniProt P49327)
T1 construct: made in house
Assay: Human FAS enzyme assay (decrease in NADPH fluorescence)
Type: biochemical
Settings: % inhibition at a concentration of 100 μmolar
Experimental: Human and Rat FAS Enzyme Assay.
Fatty acid synthase is an enzyme complex that harbours seven enzymatic activities catalysing the reductive synthesis of long chain fatty acids from acetyl CoA and malonyl CoA to palmitate. When acetyl CoA and malonyl CoA are forming palmitate NADPH is consumed forming NADP. Since NADPH is fluorescent but not NADP the reaction can be measured by analysing the decrease in fluorescence.
Compounds were added to a black 384 well plate (Matrix) in a volume of 5 μl consisting of 20% DMSO and 80% Tris buffer pH 7.5, at a top concentration of 1 mM. NADPH, 30 μl of 166.6 μM, formulated in assay buffer (0.1M Tris ph7.5, 0.1 mM EDTA, 1 mM glutathione, 0.05% BSA), was then added to all of the wells of the plate. Fatty acid synthase Human or rat enzyme (0.4 μg, produced in house), dissolved in 20 mM Tris/HCl pH 7.5, 5 mM BOG, 1 mM TCEP, 10% glycerol, 1 mM EDTA, 150 mM NaCl, was then added to the plate in a volume of 10 μl. Enzyme was added to all but the last two columns of the plate, to which, 10 μl of assay buffer was added (0.1M Tris ph7.5, 0.1 mM EDTA, 1 mM glutathione, 0.05% BSA) to provide a no enzyme assay control. Following a 15-minute incubation period, at room temperature, the plates were read on an Envision plate reader using 340 nm excitation and 460 nm emission filters. This served as a time zero background read. Substrates (an equal mix of both malonyl and acetyl CoA) were then added to the plates in a total volume of 5 μl. The concentrations of malonyl and acetyl CoA in the mixture were 500 μM and 150 μM respectively. Both were prepared as 10 mM stock solutions in distilled water and were subsequently diluted to working concentrations in assay buffer. Plates were then incubated for a further 60 minutes, at room temperature, before being read again on the Envision reader using the same parameters as previously used. The data was analysed by subtracting the background time zero data from that generated following the final 60 minute incubate and the percent inhibition compared to the maximum and minimum assay controls was determined. Sigmoid curves were fitted using Origin 7.5 Client software and IC50 values were determined.

T1 sequence (P49327 whole entry): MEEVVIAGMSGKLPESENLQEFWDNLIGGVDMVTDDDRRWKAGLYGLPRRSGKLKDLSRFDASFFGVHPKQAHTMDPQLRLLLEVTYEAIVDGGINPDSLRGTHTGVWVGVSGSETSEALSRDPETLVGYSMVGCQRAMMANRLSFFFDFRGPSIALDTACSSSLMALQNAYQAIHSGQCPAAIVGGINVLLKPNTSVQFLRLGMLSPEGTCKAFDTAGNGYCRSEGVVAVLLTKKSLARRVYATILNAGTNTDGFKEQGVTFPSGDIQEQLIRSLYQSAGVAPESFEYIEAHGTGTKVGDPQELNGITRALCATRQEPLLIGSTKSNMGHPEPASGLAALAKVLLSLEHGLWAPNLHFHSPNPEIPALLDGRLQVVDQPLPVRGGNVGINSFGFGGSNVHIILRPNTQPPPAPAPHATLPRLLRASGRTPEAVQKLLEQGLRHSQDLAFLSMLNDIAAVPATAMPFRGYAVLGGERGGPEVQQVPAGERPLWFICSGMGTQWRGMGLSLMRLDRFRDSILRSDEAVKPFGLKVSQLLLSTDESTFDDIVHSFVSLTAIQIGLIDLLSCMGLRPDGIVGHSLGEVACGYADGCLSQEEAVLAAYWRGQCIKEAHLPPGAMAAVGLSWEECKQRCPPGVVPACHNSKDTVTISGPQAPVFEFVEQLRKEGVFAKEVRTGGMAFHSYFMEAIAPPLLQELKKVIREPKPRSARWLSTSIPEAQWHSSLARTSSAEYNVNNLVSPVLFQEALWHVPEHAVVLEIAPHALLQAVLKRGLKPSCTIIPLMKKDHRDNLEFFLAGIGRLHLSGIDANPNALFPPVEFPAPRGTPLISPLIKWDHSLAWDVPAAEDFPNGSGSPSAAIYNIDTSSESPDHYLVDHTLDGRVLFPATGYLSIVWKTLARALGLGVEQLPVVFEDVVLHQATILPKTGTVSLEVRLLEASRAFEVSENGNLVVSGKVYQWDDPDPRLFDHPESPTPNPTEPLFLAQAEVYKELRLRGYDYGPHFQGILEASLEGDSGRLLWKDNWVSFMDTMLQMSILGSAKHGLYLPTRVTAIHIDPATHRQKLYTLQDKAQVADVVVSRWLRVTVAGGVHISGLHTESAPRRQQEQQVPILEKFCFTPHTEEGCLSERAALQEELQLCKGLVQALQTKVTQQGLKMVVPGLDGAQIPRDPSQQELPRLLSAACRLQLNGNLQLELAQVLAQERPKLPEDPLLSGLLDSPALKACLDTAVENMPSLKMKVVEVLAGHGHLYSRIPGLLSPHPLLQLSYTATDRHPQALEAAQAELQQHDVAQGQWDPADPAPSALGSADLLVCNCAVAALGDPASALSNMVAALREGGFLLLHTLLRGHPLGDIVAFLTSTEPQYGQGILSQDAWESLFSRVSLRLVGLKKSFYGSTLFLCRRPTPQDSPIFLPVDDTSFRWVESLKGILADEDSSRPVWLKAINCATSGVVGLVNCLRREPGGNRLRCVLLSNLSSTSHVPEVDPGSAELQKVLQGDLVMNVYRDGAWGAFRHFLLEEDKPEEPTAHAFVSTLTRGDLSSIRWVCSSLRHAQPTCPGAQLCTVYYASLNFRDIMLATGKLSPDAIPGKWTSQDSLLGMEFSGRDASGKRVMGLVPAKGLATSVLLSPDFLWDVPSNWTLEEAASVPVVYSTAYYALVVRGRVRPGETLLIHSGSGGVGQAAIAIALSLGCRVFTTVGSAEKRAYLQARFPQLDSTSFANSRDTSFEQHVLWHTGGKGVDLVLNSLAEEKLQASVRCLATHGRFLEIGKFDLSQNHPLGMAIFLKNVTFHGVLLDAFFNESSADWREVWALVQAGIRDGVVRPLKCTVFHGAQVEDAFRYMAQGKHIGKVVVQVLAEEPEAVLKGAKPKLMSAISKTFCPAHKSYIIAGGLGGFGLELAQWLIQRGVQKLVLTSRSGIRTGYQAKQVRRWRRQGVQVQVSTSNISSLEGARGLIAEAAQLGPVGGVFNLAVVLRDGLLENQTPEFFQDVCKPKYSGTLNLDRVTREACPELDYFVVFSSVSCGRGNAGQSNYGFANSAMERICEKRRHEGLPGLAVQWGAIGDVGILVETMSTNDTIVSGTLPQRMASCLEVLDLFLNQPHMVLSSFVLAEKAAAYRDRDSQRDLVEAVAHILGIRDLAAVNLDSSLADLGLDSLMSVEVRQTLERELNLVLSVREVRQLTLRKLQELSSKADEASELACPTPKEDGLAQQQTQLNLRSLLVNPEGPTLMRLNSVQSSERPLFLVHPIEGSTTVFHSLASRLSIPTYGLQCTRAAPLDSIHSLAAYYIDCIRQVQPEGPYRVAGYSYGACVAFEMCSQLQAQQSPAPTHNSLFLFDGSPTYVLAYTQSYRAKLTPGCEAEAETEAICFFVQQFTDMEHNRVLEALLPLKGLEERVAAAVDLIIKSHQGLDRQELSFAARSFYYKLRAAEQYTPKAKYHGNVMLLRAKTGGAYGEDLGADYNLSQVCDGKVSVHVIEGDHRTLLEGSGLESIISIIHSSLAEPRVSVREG

Work on `Cc1ccc(C(=O)N2CCC(c3ccc(C#N)cc3)CC2)cc1NC(=O)NC(C)Cc1c[nH]c2ccccc12` (racemic) [Example 70, (RS)-1-[5-[4-(4-cyanophenyl)piperidine-1-carbonyl]-2-methyl-phenyl]-3-[1-(1H-indol-3-yl)propan-2-yl]urea] yielded an inhibition at 100 µM of 87.7%.
In the case of `Cc1ccc(C(=O)N2CCC(c3ccc(C#N)cc3)CC2)cc1NC(=O)NC1CCCCC1O` (racemic) [Example 187, (RS) 1-[5-[4-(4-cyanophenyl)piperidine-1-carbonyl]-2-methyl-phenyl]-3-(2-hydroxycyclohexyl)urea], the inhibition at 100 µM is reported as 90.4%.
Work on `Cc1ccc(C(=O)N2CCC(c3ccc(C#N)cc3)CC2)cc1NC(=O)NCC(O)C(F)(F)F` (racemic) [Example 195, (RS)-1-[5-[4-(4-cyanophenyl)piperidine-1-carbonyl]-2-methyl-phenyl]-3-(3,3,3-trifluoro-2-hydroxy-propyl)urea] yielded an inhibition at 100 µM of 88.6%.
`Cc1ccc(C(=O)N2CCC(c3ccc(C#N)cc3)CC2)cc1NC(=O)NC1CCCNC1=O` (racemic) [Example 236, (RS)-1-[5-[4-(4-cyanophenyl)piperidine-1-carbonyl]-2-methyl-phenyl]-3-(2-oxo-3-piperidyl)urea] was tested, and the inhibition at 100 µM was 77.1%.
`Cc1ccc(C(=O)N2CCC(c3ccc(C#N)cc3)CC2)cc1NC(=O)NC1Cc2cccnc2NC1=O` (racemic) [Example 239, (RS)-1-[5-[4-(4-cyanophenyl)piperidine-1-carbonyl]-2-methyl-phenyl]-3-(2-oxo-3,4-dihydro-1H-1,8-naphthyridin-3-yl)urea] gave an inhibition at 100 µM of 86.5%.
For `Cc1ccc(C(=O)N2CCC(c3ccc(C#N)cc3)CC2)cc1NC(=O)NC(C)COc1ccccc1` (racemic) [Example 253, (RS)-1-[5-[4-(4-cyanophenyl)piperidine-1-carbonyl]-2-methyl-phenyl]-3-(1-phenoxypropan-2-yl)urea], the inhibition at 100 µM was 90.9%.
With `Cc1ccc(C(=O)N2CCC(c3ccc(C#N)cc3)CC2)cc1NC(=O)NC1CCCN(C)C1` (racemic) [Example 255, (RS)-1-[5-[4-(4-cyanophenyl)piperidine-1-carbonyl]-2-methyl-phenyl]-3-(1-methyl-3-piperidyl)urea] the inhibition at 100 µM was 102%.
In the case of `CCc1ccc(C(=O)N2CCC(c3ccc(C#N)cc3)CC2)cc1NC(=O)NCC1COCCO1` (racemic) [Example 259, (RS)-1-[5-[4-(4-cyanophenyl)piperidine-1-carbonyl]-2-ethyl-phenyl]-3-(1,4-dioxan-2-ylmethyl)urea], the inhibition at 100 µM is reported as 102%.
`Cc1ccc(C(=O)N2CCC(c3ccc(C#N)cc3)CC2)cc1NC(=O)N[C@H]1CCCC[C@H]1N` (relative stereo) [Example 304, 3-[(cis)-2-aminocyclohexyl]-1-[5-[4-(4-cyanophenyl)piperidine-1-carbonyl]-2-methyl-phenyl]urea] was tested, and the inhibition at 100 µM was 92.8%.
For `Cc1ccc(C(=O)N2CCC(c3ccc(C#N)cc3)CC2)cc1NC(=O)N[C@@H]1CCCC[C@H]1N` (relative stereo) [Example 305, 3-[(trans)-2-aminocyclohexyl]-1-[5-[4-(4-cyanophenyl)piperidine-1-carbonyl]-2-methyl-phenyl]urea], the inhibition at 100 µM was 78.8%.
For `Cc1ccc(C(=O)N2CCC(c3ccc(C#N)cc3)CC2)cc1NC(=O)N[C@H]1CCCC[C@H]1NS(C)(=O)=O` (relative stereo) [Example 307, 1-[5-[4-(4-cyanophenyl)piperidine-1-carbonyl]-2-methyl-phenyl]-3-[(cis)-2-methanesulfonamidocyclohexyl]urea], the inhibition at 100 µM was 96.1%.
Work on `CC(=O)N[C@@H]1CCCC[C@@H]1NC(=O)Nc1cc(C(=O)N2CCC(c3ccc(C#N)cc3)CC2)ccc1C` (relative stereo) [Example 308, N-[(cis)-2-[[5-[4-(4-cyanophenyl)piperidine-1-carbonyl]-2-methyl-phenyl]carbamoylamino]cyclohexyl]acetamide] yielded an inhibition at 100 µM of 91.5%.
